The values that follow come from US20250027085A1, “COMPOSITIONS AND METHODS FOR TREATING ALZHEIMER'S DISEASE UTILIZING A TRANSCRIPTIONAL MASTER REGULATOR OF THE RETROMER COMPLEX” (THE TRUSTEES OF COLUMBIA UNIVERSITY IN THE CITY OF NEW YORK, priority 2022, published 2025).

“Also recorded” adds a separate entry of the source.

Data set [1] deals with CREB3L2-ATF4 heterodimers. Kind of data set: Proximity ligation assay (PLA) of axonal CREB3L2-ATF4 heterodimers. The data set is classed as cell-based, rat. The conditions noted are these: emetine 100 nM to axons, last 60 minutes of 12-hour Aβ42 protocol. On the procedure: Hippocampi were dissected from embryonic day (E) 16-18 rat embryos obtained from pregnant Sprague-Dawley dams (Envigo). All animal procedures were approved by the Institutional Animal Care and Use Committee at Columbia University. Cell dissociation was performed using TripLE Express. Neurons (50,000-60,000 per microfluidic chamber) were plated on 0.1 mg ml^-1 poly-D-lysine (Millipore Sigma) and 2 μg ml^-1 laminin (Bio-Techne) coated substrates and grown in Neurobasal supplemented with 10% fetal bovine serum, 2 mM L-glutamine, 1 mM sodium pyruvate, and antibiotics (50 U ml^-1 penicillin-streptomycin). Tripartite microfluidic chambers were produced with Dow Corning Sylgard 184 Silicone Encapsulant Clear Kit (10:1 mix ratio; Ellsworth Adhesives) cured at […] for at least 4 hours following published protocols (Park et al. 2006; Desai et al. 2009). Chamber design incorporated two sets of 200-μm-long microgroove barriers to exclude crossing of cell bodies and dendrites (Taylor et al. 2005; […] et al. 2009). After 24 hours, medium was changed to Neurobasal containing 1×B27 and 2 mM L-glutamine. Subsequent medium changes (half volumes) were performed at DIV4 and thereafter every 3-5 days. To prevent glial cell proliferation, medium changes included 5-flurodeoxyuridine and uridine (final concentration […]; Millipore Sigma) after DIV4. […]

The target of data set [2] is GFP-tagged CREB3L2-S1P- (full-length form with mutated S1P site) (UniProt Q70SY1).
Data set [3] deals with T1, GFP-tagged H. sapiens CREB3L2, full-length form (UniProt Q70SY1).
T1 sequence: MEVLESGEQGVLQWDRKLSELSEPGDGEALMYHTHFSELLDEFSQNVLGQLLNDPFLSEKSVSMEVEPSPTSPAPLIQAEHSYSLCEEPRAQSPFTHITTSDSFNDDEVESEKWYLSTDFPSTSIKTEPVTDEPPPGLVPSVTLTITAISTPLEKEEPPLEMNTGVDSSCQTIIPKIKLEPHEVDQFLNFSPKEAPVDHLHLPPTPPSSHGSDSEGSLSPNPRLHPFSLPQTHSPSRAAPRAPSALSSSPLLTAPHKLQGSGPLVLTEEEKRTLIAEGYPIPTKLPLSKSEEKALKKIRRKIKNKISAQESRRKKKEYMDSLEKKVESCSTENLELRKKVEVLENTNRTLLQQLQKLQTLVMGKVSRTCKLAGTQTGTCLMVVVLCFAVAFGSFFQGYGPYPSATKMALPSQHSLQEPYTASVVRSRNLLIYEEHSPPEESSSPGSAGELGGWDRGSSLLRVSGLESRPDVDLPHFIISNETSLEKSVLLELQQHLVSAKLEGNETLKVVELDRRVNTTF

In a further data set the test system is neurons. The conditions noted are these: Rodriguez et al., 2021; cited from earlier work.
The conditions of data set [4]: Schafer et al., 2016; cited from earlier work.
Data set [5] deals with rat hippocampal neurons. Kind of data set: RNA-seq of Aβ42-challenged neurons with dovitinib co-treatment. It is filed as cell-based. The procedure:
Basal expression levels were measured in vehicle-treated cells. DEGs identified in Aβ42 condition are compared against their expression values in neurons co-treated with dovinitib. Individual datapoints show fold-changes over baseline (log2-transformed) of n=2 biological replicates. Aβ42 and dovitinib were applied for 24 hours before RNA collection. […] FGF, fibroblast growth factor.
Prior to RNA collection, neuronal cultures were washed with ice-cold HBSS (Thermo Fischer) and lysed with TRIzol reagent (#15596026, Thermo Fisher) by scrapping. The reaction was allowed to proceed on ice for 5 minutes, at which point samples were centrifuged at 12,000 g and 4° C. and supernatants transferred to new tubes before a 1:1 (v/v) dilution with molecular biology-grade 100% ethanol (Millipore Sigma). The RNA extraction protocol was continued using the Direct-zol RNA MicroPrep kit (Zymo Research), in accordance to manufacturer's instructions, and included an on-column DNA digestion step with DNase I. RNA was eluted in 30 μl of water. RNA-seq library preparation and sequencing reactions were conducted at GENEWIZ, Inc. (South Plainfield, NJ, USA). RNA sequencing libraries were prepared using the NEBNext Ultra RNA Library Prep Kit for Illumina following manufacturer's instructions (NEB). Briefly, mRNAs were first enriched with oligo(dT) beads. […] The sequencing libraries were validated on an Agilent TapeStation (Agilent Technologies) and quantified using a Qubit 2.0 Fluorometer (Life Technologies) as well as quantitative PCR (KAPA Biosystems). […] RNA-seq sequencing data were processed and analyzed within the Galaxy web platform, using the public server at usegalaxy.org. First, library adapters and low-quality reads were removed using Trimmomatic (version 0.38) with the following settings: initial ILLUMINACLIP step to cut adapters and other Illumina-specific sequences from the reads, seedMismatches=2, palindromeClipThreshold=30, simpleClipThreshold=10, minAdapterLength=8, keepBothReads=True, AVGQUAL >20, SLIDINGWINDOW: windowSize=4 and requiredQuality=20, and MINLEN=50. […]

The subject of data set [6] is rat hippocampal neurons. Put plainly: Neuronal viability (RealTime-Glo MT) after 48-hour Aβ42 stimulation. The data set is classed as cell-based. The conditions noted are these: lentiviral delivery at DIV1; Aβ42 750 nM 48 hours; relative to wild-type neurons; Aβ42/vehicle ratios. On the procedure: Plots show individual measurements and mean±SEM of n=3 biological replicates. For each background, data are presented as Aβ42/vehicle ratios. ATF4 aZIP: *P-value=0.0167; CREB3L2 aZIP: *P-value=0.0137; unpaired t-tests.
Specific aZIPs sequences were synthesized by Genewiz. CREB3L2 aZIP: 5′-[…]-3′. (SEQ ID NO: 68) ATF4 aZIP: 5′-[…]-3′. […] Lentiviral particles were delivered at DIV1, 24 hours post-dissection. Neuronal cultures were allowed to mature until DIV15 and treated with Aβ42 at 750 nM for 48 hours. Cell viability was assayed using RealTime-Glo MT Cell Viability Assay (Promega) following manufacturer's guidelines; reaction was allowed to proceed for 1 hour before taking luminescence readings (SpectraMax iD5, Molecular Devices). Also see FIGS. 34A-34D.

For the molecule `CC[C@H]1CN2CCc3cc(OC)c(OC)cc3[C@@H]2C[C@@H]1C[C@H]1NCCc2cc(OC)c(OC)cc21` [emetine], the “Aβ42-induced upregulation of axonal CREB3L2-ATF4 heterodimers (PLA)” value in data set [1] is recorded as “completely prevented; also recorded: limited their association in axons to control levels”. Turning to site 2 protease (S2P), the “CREB3L2 proteolytic cleavage (western blot, coexpression in HEK293)” value in data set [2] is reported as “Preventing S1P processing by eliminating its cleavage site does not impede S2P-mediated processing”; in data set [3], “Coexpression of S2P, but not S1P, together with full-length GFP-CREB3L2 in HEK293 cells is sufficient to promote the activation of CREB3L2”. For the molecule `CN1CCN(c2ccc3nc(-c4c(N)c5c(F)cccc5[nH]c4=O)[nH]c3c2)CC1` [dovitinib], the toxicity to neurons entry in the data set on neurons is given as “non-toxic”. Also, in data set [4], the “crossing of the blood-brain barrier” value is given as “can cross”. Moreover, the “number of genes surpassing 0.25 differences in head-to-head comparisons” value in the data set on rat hippocampal neurons [5] (24-hour Aβ42 + dovitinib vs Aβ42) was 30. In the data set with rat hippocampal neurons [5] (24-hour Aβ42 + dovitinib, log fold-change, n=2), the “number of Aβ42 DEGs (of 203) showing corrective shifts 0.10 with dovitinib co-treatment” value was 131. In addition, the “Vgf log fold-change [Aβ42+dovitinib]” value in the data set on rat hippocampal neurons [5] (24 hours, Aβ42 alone log fold-change 0.57, over vehicle baseline) is recorded as 0.07. For site 1 protease (S1P), the “CREB3L2 proteolytic cleavage (western blot, coexpression in HEK293)” value in data set [3] was “Coexpression of S2P, but not S1P, together with full-length GFP-CREB3L2 in HEK293 cells is sufficient to promote the activation of CREB3L2”.

B1: ATF4 aZIP: dominant-negative acidic-ZIP peptide targeting ATF4, encoded by nucleotide SEQ ID NO: 69, delivered by lentivirus (protein)
peptide: MDYKDDDDKHMASMTGGQQMGRDPDLEQRAEELARENEELEKEAEELEQELAELTGECKELEKKNEALKEKADSLAKEIQYLKDLIEEVRKARGKKRVP
Turning to B1, the “cell viability in neurons exposed to Aβ42” value with rat hippocampal neurons [6] was “significantly improved”.

B2: CREB3L2 aZIP: dominant-negative acidic-ZIP peptide targeting CREB3L2, encoded by nucleotide SEQ ID NO: 68, delivered by lentivirus (protein)
peptide: MDYKDDDDKHMASMTGGQQMGRDPDLEQRAEELARENEELEKEAEELEQELAELRKKVEVLENTNRTLLQQLQKLQTLVMGKVSRTCKLAGTQTGTCLMVVVL
For the molecule B2, the “cell viability in neurons exposed to Aβ42” value in the data set with rat hippocampal neurons [6] is recorded as “significantly improved”.
